Read-outs that look alike come from different tables or passages of the source.
Columns and labels:
SH-SY5Y cells = conditions: for IC10, SH-S5Y5, NOI: cytotoxicity, NOI assay cells; for Toxic ratio (TR) TRNOI: against baseline cytotoxicity
Protocol: Cell culture conditions and bioassay protocols including response detection are provided in Text S2.1–2.4 and Table S3. − Cell viability was determined from cell confluency using an IncuCyte S3 Live-Cell Analysis System (Sartorius AG, Essen, Germany) before and after exposure, except for SH-SY5Y cells (live–dead staining with Nuclear Green LcS1 and propidium iodide, Abcam, UK). For metabolic activation experiments, cell viability was assessed using the ToxBLAzer DualScreen Kit (Thermo Fisher Scientific) to capture the remaining toxicity in ERα-UAS-bla GripTite after treatment with the aCYP catalyst (details in Text S2.4). […]
We measured the cytotoxicity of BPA and its alternatives in HEK293H (PPARγ), HEK293T (ERα), H4IIe (AhR CALUX), MCF7 (ARE/MMP), and differentiated SH-SY5Y cells (Table S6). […]
medium, supplemented with 2% B-27 Supplement and 2 mM GlutaMAX Supplement. SH - SY5Y cells were differentiated with 10 µM all-trans retinoic acid prior to the assay.
S2.2: Cell Seeding and Incubation. For all bioassays, cell suspensions in the respective assay medium were dispensed into each well of 384-well plates using a MultiFlo Dispenser (Biotek, (now Agilent), Winooski, VT, U.S.). After seeding, the plates were incubated at 37° C and 5% […]
NYC, U.S.) for AhR: 3250 cells/well. Black Collagen I coated plates were used (Product No.
S2.3: Chemical Dosing and Assay Analysis Procedures. The dosing procedure and high-throughput assay workflow have been described in detail before. 9 The dosing concentrations […]
Stock solutions were then either added directly to the respective cell culture medium or evaporated under nitrogen, followed by replenishment with fresh medium. The final solvent content in each well was kept below 1% for methanol, 0% for acetonitrile.
Dosing plates were prepared as 11 -step serial dilutions using a Hamilton Microlab Star robotic system (Hamilton, Bonaduz, Switzerland), and chemicals were dosed in duplicates by transferring 10 μL twice from the dosing plates to the cell plates . After quantifying cell confluency as described in S2. 4., the exposed cells were incubated at 37° C and 5% CO₂ for an additional 24 h. All chemicals were tested in all assays with at least three independent […]
S2.4: Cell Viability Measurement s and bioanalytical protocols . The confluency as a measure of cell viability was determined with an IncuCyte S3 Live -Cell Analysis System (Sartorius AG, Essen, Germany). With this method the confluency of cells in a microscopy image are normalized to control wells without cells and compared before and after 24 hours of exposure.
This method has been described previously 13. Cell viability of SH-SY5Y cells was measured […]
propidium iodide (PI, Abcam, Cambridge, U.K.).14 Nuclear Green LCS1 is a membrane-permeable dye that stains the nuclei of all cells, whereas PI only enters cells with compromised membrane integrity (non-viable cells). After staining, live cells show green nuclei without red fluorescence, while dead cells display both green and red nuclear fluorescence due to PI […]
intercalation. […]

[1] = Acidity constant (pKa) measurement, Sirius T3 UV-metric, and speciation at pH 7.4; conditions: for Double negative form (pH = 7.40) / Negative form (pH = 7.40) / Neutral form (pH = 7.40) / αneutral % (fraction of neutral species): from experimental pKa; for αneutral % (fraction of neutral species): pH 7.4; for pKa: phosphate buffer with […] KCl, Sirius T3 titrator, pKa (Acid), experimental, this study
Protocol: Physicochemical properties provide input parameters for the baseline toxicity model. Acidity constants (pK a) and octanol–water partition constants of the neutral species (K ow) were measured with a Sirius T instrument from Pion Inc. (Sussex, UK) (Text S1.2 and Table S1). A detailed description of the pK a and K ow measurements can be found in literature. , […]
S1.2: pKa and log Kow measurements […]
titrator (Pion Inc., Sussex, U.K.). A detailed description of the experimental procedure is available in the literature.1 In brief, each sample was prepared by mixing 5 µL of a 10 mM dimethyl sulfoxide (DMSO) stock solution with 25 µL of a phosphate buffer solution (14.4 mM […]
A reference vial containing 5 µL of DMSO
(Roth, A994-100 ML) and 25 µL of phosphate buffer was analyzed alongside each sample.
The pKa values were determined using the automated UV-metric pKa protocol within the Sirius T3 Control software (version 2.0.0.0.). Each sample was subjected to three consecutive […]
from 2 to 12 by stepwise addition of 0.5 M HCl or 0.5 M potassium hydroxide while recording […]
UV absorbance. […]
To ensure reproducibility, measurements were conducted on at least two

[2] = Abiotic CYP (aCYP) oxidation, remaining parent compound (Cparent-Ratio); conditions: for Cparent-Ratio Rep.1 %: Table S9, replicate 1; for Cparent-Ratio Rep.2 %: Table S9, replicate 2; for reduction of C parent after aCYP oxidation: 15 min, 30 °C
[3] = NOI bioassay cytotoxicity, dosing range all, linear model
[4] = NOI bioassay cytotoxicity, dosing range all, log-logistic model
[5] = Table S9, loss of parent after aCYP oxidation
[6] = Table S9, mean of two replicate experiments
[7] = Table S9, replicate 1, as fraction
[8] = Table S9, replicate 2, as fraction
[9] = Table S11, measured simultaneously with bioassay
[10] = NOI bioassay cytotoxicity, dosing range all

Structure (SMILES) | IC10, linear (SH-SY5Y cells; [3]) | logIC10 (SH-SY5Y cells; [4]) | IC10, SH-S5Y5, NOI (SH-SY5Y cells) | Double negative form (pH = 7.40) [1] | Negative form (pH = 7.40) [1] | Neutral form (pH = 7.40) [1] | αneutral % (fraction of neutral species) [1] | pKa ([1]; second pKa column) | pKa [1] | % Loss [2, 5] | % Loss ([2]; Table S11) | Cparent-Ratio Mean [2, 6] | Cparent-Ratio Rep.1 % [2] | Cparent-Ratio Rep.1 [2, 7] | Cparent-Ratio Rep.2 % [2] | Cparent-Ratio Rep.2 [2, 8] | Toxic ratio (TR) TRNOI (SH-SY5Y cells) | other results
Oc1ccc(Sc2ccc(O)cc2)cc1 [BPT, 4,4'-Thiodiphenol] | 1.40E-04 | no cytotoxicity | 140 µM | 0.0324% | 4.47% | 96% | 96% | 9.54 | 8.73 | 71% | 87% |  |  |  |  |  |  | 
O=S(=O)(c1ccc(O)cc1)c1ccc(OCc2ccccc2)cc1 [BPS-MPE, 4-[4-(benzyloxy)benzenesulfonyl]phenol] | no cytotoxicity | no cytotoxicity |  |  | 32% | 68% | 68% |  | 7.73 | 0.295% |  | 1.00 | 118.51% | 1.19 | 80.90% | 0.81 |  | 
Cc1ccc(S(=O)(=O)NC(=O)Nc2ccc(Cc3ccc(NC(=O)NS(=O)(=O)c4ccc(C)cc4)cc3)cc2)cc1 [BTUM, 4,4'-Bis(p-tolylsulfonylureido)diphenylmethane] | no cytotoxicity | no cytotoxicity |  | 99.53% | 0.47% | 0.0007% | 0.0007% | 5.07 | 4.59 | 70% | 79% | 0.30 | 26.78% | 0.27 | 33.79% | 0.34 |  | reduction of C parent after aCYP oxidation [2]: 70%; Cparent-Ratio Mean [2, 9]: 0.21; Cparent-Ratio Rep.1 [2, 9]: 0.23; Cparent-Ratio Rep.2 [2, 9]: 0.18
Cc1ccc(S(=O)(=O)NC(=O)Nc2cccc(OS(=O)(=O)c3ccc(C)cc3)c2)cc1 [Pergafast, N-(p-toluenesulfonyl)-N'-(3-(p-toluenesulfonyloxy)phenyl)urea] | 4.94E-05 | no cytotoxicity | 49.4 µM |  | 100% | 0.089% | 0.089% |  | 4.35 | 44% | 32% | 0.56 | 66.98% | 0.67 | 45.82% | 0.46 | 2.23 | reduction of C parent after aCYP oxidation [2]: 44%; Cparent-Ratio Mean [2, 9]: 0.68; Cparent-Ratio Rep.1 [2, 9]: 0.75; Cparent-Ratio Rep.2 [2, 9]: 0.61
CC(C)Oc1ccc(S(=O)(=O)c2ccc(O)cc2)cc1 [D8, 4-((4-Isopropoxyphenyl)sulfonyl)phenol] |  |  |  |  | 39% | 61% | 61% |  | 7.6 | -13% |  | 1.13 | 114.96% | 1.15 | 110.37% | 1.10 | 0.22 | IC10, linear (SH-SY5Y cells): no cytotoxicity; logIC10 (SH-SY5Y cells; human, 24 h): -3.31
O=C(OCc1ccccc1)c1ccc(O)cc1 [BzPB, Benzyl 4-hydroxybenzoate] | no cytotoxicity | -3.41 | 389 µM |  | 0.599% | 99% | 99% |  | 9.62 | -22% |  | 1.22 | 115.59% | 1.16 | 128.10% | 1.28 | 0.07 | IC10, linear transformed (SH-SY5Y cells; [10]): 3.89E-04
COC(=O)C(c1ccc(O)cc1)c1ccc(O)cc1 [Bz, Methyl bis(4-hydroxyphenyl)acetate] | 3.73E-04 | -3.30 | 373 µM | 3% | 26% | 71% | 71% | 8.34 | 7.83 | -7% |  | 1.07 | 113.92% | 1.14 | 100.34% | 1.00 | 0.85 | IC10, linear transformed (SH-SY5Y cells; [10]): 5.07E-04

Reference: article PMC12392461, “Beyond Estrogenicity: A Comparative Assessment of Bisphenol A and Its Alternatives in In Vitro Assays Questions Safety of Replacements” (Environmental Science & Technology, 2025)
